{
  "source": "patent US20260183295A1",
  "about": "“METHODS AND COMPOSITIONS FOR TREATING CANCER” (Onconova Therapeutics, Inc., priority 2022, published 2026)",
  "assay_in_all_cases": "CETSA-MS, MDA-MB-231 intact cells",
  "format_in_all_cases": "cell-based",
  "settings_in_all_cases": "2 μM and 20 μM",
  "key": {"[1]": {"target": "T1, CDC5L (Homo sapiens, UniProt Q99459)", "T1 construct": "endogenous in cells; host or cells: MDA-MB-231", "method_in_brief": "(§1)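 MS-based cellular thermal shift in live MDA-MB-231: incubate, heat across gradient, lyse, keep soluble fraction, precipitate, digest, label, run proteomics.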"}, "[2]": {"target": "T2, LRRC59 (Homo sapiens, UniProt Q96AG4)", "T2 construct": "endogenous in cells; host or cells: MDA-MB-231", "T2 sequence (Q96AG4 whole entry)": "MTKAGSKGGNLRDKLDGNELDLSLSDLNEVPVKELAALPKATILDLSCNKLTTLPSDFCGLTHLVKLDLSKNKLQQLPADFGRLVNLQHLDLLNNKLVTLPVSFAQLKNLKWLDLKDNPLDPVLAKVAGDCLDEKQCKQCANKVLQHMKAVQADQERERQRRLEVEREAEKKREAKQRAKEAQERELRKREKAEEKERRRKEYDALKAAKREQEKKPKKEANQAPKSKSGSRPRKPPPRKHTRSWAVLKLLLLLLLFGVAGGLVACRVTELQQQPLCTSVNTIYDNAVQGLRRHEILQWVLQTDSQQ", "method_in_brief": "as §1"}, "[3]": {"target": "T3, HNRNPA1 (Homo sapiens, UniProt P09651)", "T3 construct": "148 targets unique to Compound 1 in MDA-MB-231 intact cells; endogenous in cells; host or cells: MDA-MB-231", "method_in_brief": "as §1"}, "[4]": {"target": "T4, CLPP (Homo sapiens, UniProt Q16740)", "T4 construct": "endogenous in cells; host or cells: MDA-MB-231", "method_in_brief": "as §1"}, "[5]": {"target": "T5, CPD (Homo sapiens, UniProt O75976)", "T5 construct": "148 targets unique to Compound 1 in MDA-MB-231 intact cells; endogenous in cells; host or cells: MDA-MB-231", "method_in_brief": "as §1"}, "[6]": {"target": "T6, LAMA5 (Homo sapiens, UniProt O15230)", "T6 construct": "endogenous in cells; host or cells: MDA-MB-231", "method_in_brief": "as §1"}, "[7]": {"target": "T7, FOSB (Homo sapiens, UniProt P53539)", "T7 construct": "endogenous in cells; host or cells: MDA-MB-231", "method_in_brief": "as §1"}, "[8]": {"target": "T8, GCAT (Homo sapiens, UniProt O75600)", "T8 construct": "148 targets unique to Compound 1 in MDA-MB-231 intact cells; endogenous in cells; host or cells: MDA-MB-231", "method_in_brief": "as §1"}, "[9]": {"target": "T9, YES1 (Homo sapiens, UniProt P07947)", "T9 construct": "endogenous in cells; host or cells: MDA-MB-231", "method_in_brief": "as §1"}, "[10]": {"target": "T10, APP (Homo sapiens, UniProt P05067)", "T10 construct": "endogenous in cells; host or cells: MDA-MB-231", "method_in_brief": "as §1"}, "[11]": {"target": "T11, CDK17 (Homo sapiens, UniProt Q00537)", "T11 construct": "endogenous in cells; host or cells: MDA-MB-231", "method_in_brief": "as §1"}, "[12]": {"target": "T12, TTK (Homo sapiens, UniProt P33981)", "T12 construct": "endogenous in cells; host or cells: MDA-MB-231", "method_in_brief": "as §1"}, "[13]": {"target": "T13, HSPG2 (Homo sapiens, UniProt P98160)", "T13 construct": "endogenous in cells; host or cells: MDA-MB-231", "method_in_brief": "as §1"}, "[14]": {"target": "T14, DBNDD2 (Homo sapiens, UniProt Q9BQY9)", "T14 construct": "148 targets unique to Compound 1 in MDA-MB-231 intact cells; endogenous in cells; host or cells: MDA-MB-231", "method_in_brief": "as §1"}, "[15]": {"target": "T15, GSK3B (Homo sapiens, UniProt P49841)", "T15 construct": "endogenous in cells; host or cells: MDA-MB-231", "T15 sequence (P49841 whole entry)": "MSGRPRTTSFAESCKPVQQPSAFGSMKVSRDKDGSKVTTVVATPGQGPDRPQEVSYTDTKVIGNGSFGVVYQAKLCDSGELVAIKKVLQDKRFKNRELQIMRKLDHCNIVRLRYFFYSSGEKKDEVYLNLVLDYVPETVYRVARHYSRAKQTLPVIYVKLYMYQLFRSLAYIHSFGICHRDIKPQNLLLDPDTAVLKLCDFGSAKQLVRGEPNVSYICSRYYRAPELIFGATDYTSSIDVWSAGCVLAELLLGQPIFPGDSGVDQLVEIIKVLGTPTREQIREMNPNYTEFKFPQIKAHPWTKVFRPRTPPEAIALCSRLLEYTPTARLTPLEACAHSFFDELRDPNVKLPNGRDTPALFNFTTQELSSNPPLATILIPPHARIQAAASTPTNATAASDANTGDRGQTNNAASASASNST", "method_in_brief": "as §1"}, "[16]": {"target": "T16, SCP2 (Homo sapiens, UniProt P22307)", "T16 construct": "endogenous in cells; host or cells: MDA-MB-231", "method_in_brief": "as §1"}, "[17]": {"target": "T17, ZFR (Homo sapiens, UniProt Q96KR1)", "T17 construct": "endogenous in cells; host or cells: MDA-MB-231", "method_in_brief": "as §1"}, "[18]": {"target": "T18, RPS6KA3 (Homo sapiens, UniProt P51812)", "T18 construct": "endogenous in cells; host or cells: MDA-MB-231", "T18 sequence (P51812 whole entry)": "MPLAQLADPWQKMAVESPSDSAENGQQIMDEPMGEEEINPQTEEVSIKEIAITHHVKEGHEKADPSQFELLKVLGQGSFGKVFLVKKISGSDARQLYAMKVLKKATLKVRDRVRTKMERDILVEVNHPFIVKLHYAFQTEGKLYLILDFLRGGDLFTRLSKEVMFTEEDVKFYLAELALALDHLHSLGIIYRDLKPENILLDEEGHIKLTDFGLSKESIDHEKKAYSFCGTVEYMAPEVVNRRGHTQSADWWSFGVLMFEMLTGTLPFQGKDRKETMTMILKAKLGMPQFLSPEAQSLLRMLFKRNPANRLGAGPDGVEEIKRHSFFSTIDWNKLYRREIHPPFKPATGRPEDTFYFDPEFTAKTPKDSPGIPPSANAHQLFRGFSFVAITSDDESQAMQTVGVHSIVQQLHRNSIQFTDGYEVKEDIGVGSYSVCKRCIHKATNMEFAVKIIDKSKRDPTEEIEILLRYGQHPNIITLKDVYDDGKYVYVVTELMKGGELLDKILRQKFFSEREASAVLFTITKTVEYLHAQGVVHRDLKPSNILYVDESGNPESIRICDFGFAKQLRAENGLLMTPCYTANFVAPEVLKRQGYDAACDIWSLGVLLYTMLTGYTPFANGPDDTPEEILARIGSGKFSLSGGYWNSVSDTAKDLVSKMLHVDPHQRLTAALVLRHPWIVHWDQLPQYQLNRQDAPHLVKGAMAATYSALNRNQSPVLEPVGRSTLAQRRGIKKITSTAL", "method_in_brief": "as §1"}, "[19]": {"target": "T19, LYPLA2 (Homo sapiens, UniProt O95372)", "T19 construct": "endogenous in cells; host or cells: MDA-MB-231", "method_in_brief": "as §1"}, "[20]": {"target": "T20, HNRNPR (Homo sapiens, UniProt O43390)", "T20 construct": "endogenous in cells; host or cells: MDA-MB-231", "method_in_brief": "as §1"}, "[21]": {"target": "T21, GALNT7 (Homo sapiens, UniProt Q86SF2)", "T21 construct": "148 targets unique to Compound 1 in MDA-MB-231 intact cells; endogenous in cells; host or cells: MDA-MB-231", "method_in_brief": "as §1"}, "[22]": {"target": "T22, GAK (Homo sapiens, UniProt O14976)", "T22 construct": "148 targets unique to Compound 1 in MDA-MB-231 intact cells; endogenous in cells; host or cells: MDA-MB-231", "method_in_brief": "as §1"}, "[23]": {"target": "T23, RSF1 (Homo sapiens, UniProt Q96T23)", "T23 construct": "endogenous in cells; host or cells: MDA-MB-231", "T23 sequence (Q96T23 whole entry)": "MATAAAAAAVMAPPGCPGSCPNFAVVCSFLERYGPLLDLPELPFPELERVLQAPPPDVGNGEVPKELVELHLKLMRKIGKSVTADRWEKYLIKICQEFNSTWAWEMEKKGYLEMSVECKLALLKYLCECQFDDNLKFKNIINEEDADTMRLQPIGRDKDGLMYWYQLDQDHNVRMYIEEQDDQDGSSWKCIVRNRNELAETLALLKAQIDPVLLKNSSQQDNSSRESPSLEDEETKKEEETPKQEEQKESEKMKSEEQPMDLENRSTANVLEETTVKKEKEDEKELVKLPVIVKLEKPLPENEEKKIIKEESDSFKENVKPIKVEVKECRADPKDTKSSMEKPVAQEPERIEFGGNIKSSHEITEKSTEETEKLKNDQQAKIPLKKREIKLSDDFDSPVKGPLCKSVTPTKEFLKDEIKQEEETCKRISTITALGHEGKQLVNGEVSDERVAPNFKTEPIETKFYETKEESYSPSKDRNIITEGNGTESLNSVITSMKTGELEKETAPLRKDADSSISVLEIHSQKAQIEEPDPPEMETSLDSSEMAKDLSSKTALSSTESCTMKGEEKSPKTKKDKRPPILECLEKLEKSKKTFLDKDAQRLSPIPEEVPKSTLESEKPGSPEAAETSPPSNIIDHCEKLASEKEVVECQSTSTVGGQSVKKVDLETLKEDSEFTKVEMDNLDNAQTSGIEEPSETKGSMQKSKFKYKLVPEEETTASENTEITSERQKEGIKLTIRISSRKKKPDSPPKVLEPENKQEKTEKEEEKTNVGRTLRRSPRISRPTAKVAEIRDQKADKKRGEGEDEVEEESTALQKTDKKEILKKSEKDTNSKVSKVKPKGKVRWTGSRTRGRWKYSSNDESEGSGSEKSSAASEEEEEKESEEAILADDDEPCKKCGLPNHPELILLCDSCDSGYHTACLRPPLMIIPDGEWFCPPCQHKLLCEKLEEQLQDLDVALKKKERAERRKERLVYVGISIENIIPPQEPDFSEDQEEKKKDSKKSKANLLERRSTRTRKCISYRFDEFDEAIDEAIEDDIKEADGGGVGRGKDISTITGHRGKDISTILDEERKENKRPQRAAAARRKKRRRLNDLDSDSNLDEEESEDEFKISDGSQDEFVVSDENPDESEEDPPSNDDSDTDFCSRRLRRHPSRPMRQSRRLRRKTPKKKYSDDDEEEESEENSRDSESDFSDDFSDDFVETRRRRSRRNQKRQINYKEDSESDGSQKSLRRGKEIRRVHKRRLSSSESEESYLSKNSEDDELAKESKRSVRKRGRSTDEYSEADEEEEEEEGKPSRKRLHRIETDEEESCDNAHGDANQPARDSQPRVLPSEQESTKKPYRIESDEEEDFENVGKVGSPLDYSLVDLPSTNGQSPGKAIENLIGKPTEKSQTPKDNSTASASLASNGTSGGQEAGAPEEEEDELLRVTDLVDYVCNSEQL", "method_in_brief": "as §1"}, "[24]": {"target": "T24, NPM1 (Homo sapiens, UniProt P06748)", "T24 construct": "endogenous in cells; host or cells: MDA-MB-231", "method_in_brief": "as §1"}, "[25]": {"target": "T25, ZNF608 (Homo sapiens, UniProt Q9ULD9)", "T25 construct": "endogenous in cells; host or cells: MDA-MB-231", "method_in_brief": "as §1"}, "[26]": {"target": "T26, STX5 (Homo sapiens, UniProt Q13190)", "T26 construct": "endogenous in cells; host or cells: MDA-MB-231", "method_in_brief": "as §1"}, "[27]": {"target": "T27, CCN1 (Homo sapiens, UniProt O00622)", "T27 construct": "endogenous in cells; host or cells: MDA-MB-231", "method_in_brief": "as §1"}, "[28]": {"target": "T28, SND1 (Homo sapiens, UniProt Q7KZF4)", "T28 construct": "endogenous in cells; host or cells: MDA-MB-231", "method_in_brief": "as §1"}, "[29]": {"target": "T29, HNRNPL (Homo sapiens, UniProt P14866)", "T29 construct": "endogenous in cells; host or cells: MDA-MB-231", "method_in_brief": "as §1"}, "[30]": {"target": "T30, SGPP1 (Homo sapiens, UniProt Q9BX95)", "T30 construct": "endogenous in cells; host or cells: MDA-MB-231", "T30 sequence (Q9BX95 whole entry)": "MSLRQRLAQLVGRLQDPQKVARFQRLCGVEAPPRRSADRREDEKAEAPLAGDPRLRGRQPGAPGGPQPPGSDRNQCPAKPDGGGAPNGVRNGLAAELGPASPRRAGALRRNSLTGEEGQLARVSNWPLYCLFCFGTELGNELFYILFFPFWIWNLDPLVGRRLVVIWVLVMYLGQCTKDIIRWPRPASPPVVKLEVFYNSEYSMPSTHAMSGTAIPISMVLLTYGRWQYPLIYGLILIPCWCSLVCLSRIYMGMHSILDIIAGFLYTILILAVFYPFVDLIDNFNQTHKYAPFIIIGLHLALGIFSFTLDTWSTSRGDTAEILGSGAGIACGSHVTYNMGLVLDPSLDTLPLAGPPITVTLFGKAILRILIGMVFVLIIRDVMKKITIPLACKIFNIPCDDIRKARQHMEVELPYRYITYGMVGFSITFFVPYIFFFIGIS", "method_in_brief": "as §1"}, "[31]": {"target": "T31, BMP2K (Homo sapiens, UniProt Q9NSY1)", "T31 construct": "endogenous in cells; host or cells: MDA-MB-231", "method_in_brief": "as §1"}, "[32]": {"target": "T32, FGFRL1 (Homo sapiens, UniProt Q8N441)", "T32 construct": "148 targets unique to Compound 1 in MDA-MB-231 intact cells; endogenous in cells; host or cells: MDA-MB-231", "method_in_brief": "as §1"}, "[33]": {"target": "T33, HNRNPC (Homo sapiens, UniProt P07910)", "T33 construct": "148 targets unique to Compound 1 in MDA-MB-231 intact cells; endogenous in cells; host or cells: MDA-MB-231", "method_in_brief": "as §1"}, "[34]": {"target": "T34, ARRB2 (Homo sapiens, UniProt P32121)", "T34 construct": "endogenous in cells; host or cells: MDA-MB-231", "method_in_brief": "as §1"}, "[35]": {"test_system": "FBRS", "method_in_brief": "as §1"}, "[36]": {"target": "T35, LAMC1 (Homo sapiens, UniProt P11047)", "T35 construct": "endogenous in cells; host or cells: MDA-MB-231", "T35 sequence (P11047 34-1609)": "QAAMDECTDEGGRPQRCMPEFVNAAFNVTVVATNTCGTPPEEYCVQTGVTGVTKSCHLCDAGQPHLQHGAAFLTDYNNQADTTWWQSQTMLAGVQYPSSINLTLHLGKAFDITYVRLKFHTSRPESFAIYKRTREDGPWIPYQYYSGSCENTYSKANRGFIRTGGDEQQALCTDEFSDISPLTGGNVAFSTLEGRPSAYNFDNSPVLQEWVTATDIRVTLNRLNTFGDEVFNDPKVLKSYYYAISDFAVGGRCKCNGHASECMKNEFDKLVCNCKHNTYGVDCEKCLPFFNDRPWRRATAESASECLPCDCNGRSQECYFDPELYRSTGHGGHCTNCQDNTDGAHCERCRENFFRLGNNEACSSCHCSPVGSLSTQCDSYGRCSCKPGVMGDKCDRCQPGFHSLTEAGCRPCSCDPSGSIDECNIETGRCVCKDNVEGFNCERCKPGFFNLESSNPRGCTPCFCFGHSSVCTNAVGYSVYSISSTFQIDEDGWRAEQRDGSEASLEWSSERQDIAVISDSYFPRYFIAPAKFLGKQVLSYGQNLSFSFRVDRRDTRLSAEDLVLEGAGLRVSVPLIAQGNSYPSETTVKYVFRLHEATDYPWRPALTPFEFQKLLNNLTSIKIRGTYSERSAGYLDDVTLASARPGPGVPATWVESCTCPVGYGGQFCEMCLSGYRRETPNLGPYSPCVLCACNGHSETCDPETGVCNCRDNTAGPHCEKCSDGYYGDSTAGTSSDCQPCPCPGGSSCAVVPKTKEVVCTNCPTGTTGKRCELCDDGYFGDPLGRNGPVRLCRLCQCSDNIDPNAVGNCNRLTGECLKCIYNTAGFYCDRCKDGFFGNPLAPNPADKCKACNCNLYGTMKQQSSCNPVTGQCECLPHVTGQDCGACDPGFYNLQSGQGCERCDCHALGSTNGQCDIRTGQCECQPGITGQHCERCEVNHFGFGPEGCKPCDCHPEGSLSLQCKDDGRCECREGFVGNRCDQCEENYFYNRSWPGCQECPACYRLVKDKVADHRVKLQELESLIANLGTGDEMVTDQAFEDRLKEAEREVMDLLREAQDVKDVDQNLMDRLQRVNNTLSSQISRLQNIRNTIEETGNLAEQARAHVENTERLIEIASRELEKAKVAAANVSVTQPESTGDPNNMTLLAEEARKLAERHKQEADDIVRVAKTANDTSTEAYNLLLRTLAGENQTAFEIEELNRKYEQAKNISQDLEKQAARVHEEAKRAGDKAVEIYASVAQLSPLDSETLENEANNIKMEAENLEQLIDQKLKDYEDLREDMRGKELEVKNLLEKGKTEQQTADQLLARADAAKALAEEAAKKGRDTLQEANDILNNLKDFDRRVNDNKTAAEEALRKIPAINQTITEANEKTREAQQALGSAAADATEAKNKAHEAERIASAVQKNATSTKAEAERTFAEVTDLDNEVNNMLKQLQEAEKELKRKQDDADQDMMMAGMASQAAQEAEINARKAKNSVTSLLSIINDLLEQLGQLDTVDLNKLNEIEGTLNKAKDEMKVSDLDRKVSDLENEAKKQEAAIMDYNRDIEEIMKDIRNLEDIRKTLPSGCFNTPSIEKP", "method_in_brief": "as §1"}},
  "data": [
    {"smiles": "CN1CCN(c2ccc(Nc3ncc4cc(C#N)c(=O)n(C5CCCC5)c4n3)cc2)CC1", "note": "[Compound 1, 8-cyclopentyl-2-((4-(4-methylpiperazin-1-yl)phenyl)amino)-7-oxo-7,8-dihydropyrido[2,3-d]pyrimidine-6-carbonitrile]", "values": [
      {"measurement": "Group (CETSA-MS thermal shift)", "setting": "[1]", "result": "Stabilization"},
      {"measurement": "Group (CETSA-MS thermal shift)", "setting": "[2]", "result": "Stabilization"},
      {"measurement": "Group (CETSA-MS thermal shift)", "setting": "[3]", "result": "Stabilization"},
      {"measurement": "Group (CETSA-MS thermal shift)", "setting": "[4]", "result": "Stabilization"},
      {"measurement": "Group (CETSA-MS thermal shift)", "setting": "[5]", "result": "Stabilization"},
      {"measurement": "Group (CETSA-MS thermal shift)", "setting": "[6]", "result": "Stabilization"},
      {"measurement": "Group (CETSA-MS thermal shift)", "setting": "[7]", "result": "Destabilization"},
      {"measurement": "Group (CETSA-MS thermal shift)", "setting": "[8]", "result": "Stabilization"},
      {"measurement": "Group (CETSA-MS thermal shift)", "setting": "[9]", "result": "Destabilization"},
      {"measurement": "Group (CETSA-MS thermal shift)", "setting": "[10]", "result": "Stabilization"},
      {"measurement": "Group (CETSA-MS thermal shift)", "setting": "[11]", "result": "Stabilization"},
      {"measurement": "Group (CETSA-MS thermal shift)", "setting": "[12]", "result": "Stabilization"},
      {"measurement": "Group (CETSA-MS thermal shift)", "setting": "[13]", "result": "Stabilization"},
      {"measurement": "Group (CETSA-MS thermal shift)", "setting": "[14]", "result": "Stabilization"},
      {"measurement": "Group (CETSA-MS thermal shift)", "setting": "[15]", "result": "Stabilization"},
      {"measurement": "Group (CETSA-MS thermal shift)", "setting": "[16]", "result": "Destabilization"},
      {"measurement": "Group (CETSA-MS thermal shift)", "setting": "[17]", "result": "Stabilization"},
      {"measurement": "Group (CETSA-MS thermal shift)", "setting": "[18]", "result": "Destabilization"},
      {"measurement": "Group (CETSA-MS thermal shift)", "setting": "[19]", "result": "Destabilization"},
      {"measurement": "Group (CETSA-MS thermal shift)", "setting": "[20]", "result": "Stabilization"},
      {"measurement": "Group (CETSA-MS thermal shift)", "setting": "[21]", "result": "Stabilization"},
      {"measurement": "Group (CETSA-MS thermal shift)", "setting": "[22]", "result": "Stabilization"},
      {"measurement": "Group (CETSA-MS thermal shift)", "setting": "[23]", "result": "Stabilization"},
      {"measurement": "Group (CETSA-MS thermal shift)", "setting": "[24]", "result": "Destabilization"},
      {"measurement": "Group (CETSA-MS thermal shift)", "setting": "[25]", "result": "Destabilization"},
      {"measurement": "Group (CETSA-MS thermal shift)", "setting": "[26]", "result": "Stabilization"},
      {"measurement": "Group (CETSA-MS thermal shift)", "setting": "[27]", "result": "Stabilization"},
      {"measurement": "Group (CETSA-MS thermal shift)", "setting": "[28]", "result": "Stabilization"},
      {"measurement": "Group (CETSA-MS thermal shift)", "setting": "[29]", "result": "Stabilization"},
      {"measurement": "Group (CETSA-MS thermal shift)", "setting": "[30]", "result": "Stabilization"},
      {"measurement": "Group (CETSA-MS thermal shift)", "setting": "[31]", "result": "Stabilization"},
      {"measurement": "Group (CETSA-MS thermal shift)", "setting": "[32]", "result": "Stabilization"},
      {"measurement": "Group (CETSA-MS thermal shift)", "setting": "[33]", "result": "Stabilization"},
      {"measurement": "Group (CETSA-MS thermal shift)", "setting": "[34]", "result": "Stabilization"},
      {"measurement": "Group (CETSA-MS thermal shift)", "setting": "[35]", "result": "Stabilization"},
      {"measurement": "Group (CETSA-MS thermal shift)", "setting": "[36]", "result": "Stabilization"}
    ]}
  ]
}
